What all share (format): functional
For experiment [1], the system named is Helicoverpa assulta. Put plainly: Insecticidal activity against sixth-instar larvae of Helicoverpa assulta YN7 at 21 to 3390 mg/l after 48 hr by chi-squared analysis.
Experiment [2] has as its system Helicoverpa assulta. Briefly: Insecticidal activity against sixth-instar larvae of Helicoverpa assulta YN6 at 21 to 3390 mg/l after 48 hr by chi-squared analysis.
Experiment [3] relates to Helicoverpa assulta. Briefly: Resistance factor, ratio of LD50 for sixth-instar larvae of Helicoverpa assulta YN6 to LD50 for sixth-instar larvae of Helicoverpa assulta at 21 to 3390 mg/l.
The test system of experiment [4] is Helicoverpa assulta. Put plainly: Resistance factor, ratio of LD50 for sixth-instar larvae of Helicoverpa assulta YN1 to LD50 for sixth-instar larvae of Helicoverpa assulta at 21 to 3390 mg/l.
For experiment [5], the system named is Helicoverpa assulta. Briefly: Resistance factor, ratio of LD50 for sixth-instar larvae of Helicoverpa assulta GZ4 to LD50 for sixth-instar larvae of Helicoverpa assulta at 21 to 3390 mg/l.
In experiment [6] the test system is Helicoverpa assulta. Put plainly: Insecticidal activity against sixth-instar larvae of Helicoverpa assulta AH1 at 21 to 3390 mg/l after 48 hr by chi-squared analysis.
The subject of experiment [7] is Helicoverpa assulta. Put plainly: Resistance factor, ratio of LD50 for sixth-instar larvae of Helicoverpa assulta YN8 to LD50 for sixth-instar larvae of Helicoverpa assulta at 21 to 3390 mg/l.
In experiment [8] the test system is Helicoverpa assulta. Briefly: Resistance factor, ratio of LD50 for sixth-instar larvae of Helicoverpa assulta AH1 to LD50 for sixth-instar larvae of Helicoverpa assulta at 21 to 3390 mg/l.
The subject of experiment [9] is Helicoverpa assulta. Put plainly: Insecticidal activity against sixth-instar larvae of Helicoverpa assulta YN1 at 21 to 3390 mg/l after 48 hr by chi-squared analysis.
Experiment [10] has as its system Helicoverpa assulta. Briefly: Insecticidal activity against sixth-instar larvae of Helicoverpa assulta HN2 at 21 to 3390 mg/l after 48 hr by chi-squared analysis.
Experiment [11] concerns Helicoverpa assulta. Briefly: Resistance factor, ratio of LD50 for sixth-instar larvae of Helicoverpa assulta HN2 to LD50 for sixth-instar larvae of Helicoverpa assulta at 21 to 3390 mg/l.
Experiment [12] concerns Helicoverpa assulta. Briefly: Resistance factor, ratio of LD50 for sixth-instar larvae of Helicoverpa assulta AH2 to LD50 for sixth-instar larvae of Helicoverpa assulta at 21 to 3390 mg/l.
Experiment [13] deals with Helicoverpa assulta. Briefly: Insecticidal activity against sixth-instar larvae of Helicoverpa assulta HB2 at 21 to 3390 mg/l after 48 hr by chi-squared analysis.
Experiment [14] deals with Helicoverpa assulta. Briefly: Insecticidal activity against sixth-instar larvae of Helicoverpa assulta YN1 at 1.8 to 183360 mg/l after 48 hr by chi-squared analysis.
Experiment [15] relates to Helicoverpa assulta. Put plainly: Insecticidal activity against sixth-instar larvae of Helicoverpa assulta YN3 at 1.8 to 183360 mg/l after 48 hr by chi-squared analysis.
For experiment [16], the system named is Helicoverpa assulta. Briefly: Insecticidal activity against sixth-instar larvae of Helicoverpa assulta AH1 at 1.8 to 183360 mg/l after 48 hr by chi-squared analysis.
The subject of experiment [17] is Helicoverpa assulta. Put plainly: Resistance factor, ratio of LD50 for sixth-instar larvae of Helicoverpa assulta YN4 to LD50 for sixth-instar larvae of Helicoverpa assulta at 1.8 to 183360 mg/l.
For experiment [18], the system named is Helicoverpa assulta. Put plainly: Insecticidal activity against sixth-instar larvae of Helicoverpa assulta FJ1 at 1.8 to 183360 mg/l after 48 hr by chi-squared analysis.
For experiment [19], the system named is Helicoverpa assulta. Briefly: Insecticidal activity against sixth-instar larvae of Helicoverpa assulta SD2 at 1.8 to 183360 mg/l after 48 hr by chi-squared analysis.
For experiment [20], the system named is Helicoverpa assulta. Put plainly: Insecticidal activity against sixth-instar larvae of Helicoverpa assulta YN4 at 1.8 to 183360 mg/l after 48 hr by chi-squared analysis.
In experiment [21] the test system is Helicoverpa assulta. Put plainly: Insecticidal activity against sixth-instar larvae of Helicoverpa assulta YN5 at 1.8 to 183360 mg/l after 48 hr by chi-squared analysis.
Experiment [22] relates to Helicoverpa assulta. Put plainly: Insecticidal activity against sixth-instar larvae of Helicoverpa assulta YN6 at 1.8 to 183360 mg/l after 48 hr by chi-squared analysis.
Experiment [23] deals with Helicoverpa assulta. Put plainly: Resistance factor, ratio of LD50 for sixth-instar larvae of Helicoverpa assulta AH2 to LD50 for sixth-instar larvae of Helicoverpa assulta at 1.8 to 183360 mg/l.
For experiment [24], the system named is Helicoverpa assulta. Put plainly: Resistance factor, ratio of LD50 for sixth-instar larvae of Helicoverpa assulta GZ1 to LD50 for sixth-instar larvae of Helicoverpa assulta at 1.8 to 183360 mg/l.
Experiment [25] has as its system Helicoverpa assulta. Briefly: Insecticidal activity against sixth-instar larvae of Helicoverpa assulta GZ4 at 1.8 to 183360 mg/l after 48 hr by chi-squared analysis.
Experiment [26] has as its system Helicoverpa assulta. Put plainly: Resistance factor, ratio of LD50 for sixth-instar larvae of Helicoverpa assulta HB2 to LD50 for sixth-instar larvae of Helicoverpa assulta at 39 to 12630 mg/l.
Experiment [27] relates to Helicoverpa assulta. Put plainly: Resistance factor, ratio of LD50 for sixth-instar larvae of Helicoverpa assulta YN5 to LD50 for sixth-instar larvae of Helicoverpa assulta at 39 to 12630 mg/l.
For experiment [28], the system named is Helicoverpa assulta. Put plainly: Resistance factor, ratio of LD50 for sixth-instar larvae of Helicoverpa assulta SD2 to LD50 for sixth-instar larvae of Helicoverpa assulta at 39 to 12630 mg/l.
For experiment [29], the system named is Helicoverpa assulta. Put plainly: Insecticidal activity against sixth-instar larvae of Helicoverpa assulta YN2 at 39 to 12630 mg/l after 48 hr by chi-squared analysis.
Experiment [30] concerns Helicoverpa assulta. Briefly: Insecticidal activity against sixth-instar larvae of Helicoverpa assulta FJ3 at 39 to 12630 mg/l after 48 hr by chi-squared analysis.
Experiment [31] concerns Helicoverpa assulta. Briefly: Resistance factor, ratio of LD50 for sixth-instar larvae of Helicoverpa assulta YN7 to LD50 for sixth-instar larvae of Helicoverpa assulta at 39 to 12630 mg/l.
The subject of experiment [32] is Helicoverpa assulta. Briefly: Insecticidal activity against sixth-instar larvae of Helicoverpa assulta GZ1 at 39 to 12630 mg/l after 48 hr by chi-squared analysis.
The test system of experiment [33] is Helicoverpa assulta. Put plainly: Insecticidal activity against sixth-instar larvae of Helicoverpa assulta FJ1 at 39 to 12630 mg/l after 48 hr by chi-squared analysis.
Experiment [34] deals with Helicoverpa assulta. Put plainly: Resistance factor, ratio of LD50 for sixth-instar larvae of Helicoverpa assulta YN8 to LD50 for sixth-instar larvae of Helicoverpa assulta at 39 to 12630 mg/l.
Experiment [35] concerns Helicoverpa assulta. Put plainly: Resistance factor, ratio of LD50 for sixth-instar larvae of Helicoverpa assulta GZ1 to LD50 for sixth-instar larvae of Helicoverpa assulta at 39 to 12630 mg/l.

From ChEMBL document CHEMBL3046781, “Resistance of Helicoverpa assulta (Guenée) (Lepidoptera: Noctuidae) to fenvalerate, phoxim and methomyl in China” (2009) come the findings set out here.

Structures are written as SMILES.

For orientation: LD50 means the dose expected to kill half of the subjects tested. A higher LD50 goes with a less toxic substance.

Regarding `CNC(=O)ON=C(C)SC` [METHOMYL], the LD90 in the experiment on Helicoverpa assulta [1] was 143 µg/g; in the experiment with Helicoverpa assulta [2], 66.2 µg/g; with Helicoverpa assulta [6], 168 µg/g; in the experiment on Helicoverpa assulta [9] it was 225 µg/g; in the experiment on Helicoverpa assulta [10] it was 24.2 µg/g; in the experiment on Helicoverpa assulta [13] it was 108 µg/g. In addition, the median lethal dose (LD50) with Helicoverpa assulta [1] (Helicoverpa assulta, YN7, 48 h) stood at 39 mg/kg; with Helicoverpa assulta [2] (Helicoverpa assulta, YN6, 48 h), 19.7 mg/kg; with Helicoverpa assulta [6] (Helicoverpa assulta, AH1, 48 h) it was 53.6 mg/kg; with Helicoverpa assulta [9] (Helicoverpa assulta, YN1, 48 h) it was 45.6 mg/kg; in the experiment with Helicoverpa assulta [10] (Helicoverpa assulta, HN2, 48 h), 4.24 mg/kg; with Helicoverpa assulta [13] (Helicoverpa assulta, HB2, 48 h) it was 15.8 mg/kg. In addition, the Ratio with Helicoverpa assulta [3] came out at 13.7; in the experiment with Helicoverpa assulta [4], 31.6; in the experiment with Helicoverpa assulta [5], 11.5; in the experiment with Helicoverpa assulta [7] it was 23.1; in the experiment with Helicoverpa assulta [8], 37.1; in the experiment with Helicoverpa assulta [11] it was 2.93. Further, the Ratio with Helicoverpa assulta [12] is 15.3.

With `CC(C)C(C(=O)OC(C#N)c1cccc(Oc2ccccc2)c1)c1ccc(Cl)cc1` (centres undefined) [FENVALERATE], the LD90 came to 4059 µg/g with Helicoverpa assulta [14]; 388 µg/g in the experiment on Helicoverpa assulta [15]; 833 µg/g in the experiment on Helicoverpa assulta [16]; 5.67 µg/g in the experiment on Helicoverpa assulta [18]; 27.2 µg/g in the experiment with Helicoverpa assulta [19]; 4847 µg/g in the experiment with Helicoverpa assulta [20]. For the same compound, the LD90 in the experiment on Helicoverpa assulta [21] stood at 4567 µg/g; with Helicoverpa assulta [22], 1467 µg/g; with Helicoverpa assulta [25], 133 µg/g. Also, the median lethal dose (LD50) in the experiment on Helicoverpa assulta [14] (Helicoverpa assulta, YN1, 48 h) amounted to 1360 mg/kg; in the experiment on Helicoverpa assulta [15] (Helicoverpa assulta, YN3, 48 h), 227 mg/kg; with Helicoverpa assulta [16] (Helicoverpa assulta, AH1, 48 h), 333 mg/kg; in the experiment with Helicoverpa assulta [18] (Helicoverpa assulta, FJ1, 48 h), 1.46 mg/kg; in the experiment with Helicoverpa assulta [19] (Helicoverpa assulta, SD2, 48 h) it was 1.94 mg/kg; in the experiment on Helicoverpa assulta [20] (Helicoverpa assulta, YN4, 48 h), 1500 mg/kg. In addition, the LD50 in the experiment on Helicoverpa assulta [21] (Helicoverpa assulta, YN5, 48 h) came out at 1430 mg/kg; in the experiment with Helicoverpa assulta [22] (Helicoverpa assulta, YN6, 48 h) it was 667 mg/kg; with Helicoverpa assulta [25] (Helicoverpa assulta, GZ4, 48 h), 56.2 mg/kg. Further, the Ratio is on record as 9231 with Helicoverpa assulta [17], 415 with Helicoverpa assulta [23] and 1860 with Helicoverpa assulta [24].

`CCOP(=S)(OCC)O/N=C(\C#N)c1ccccc1` [PHOXIM]: the Ratio in the experiment on Helicoverpa assulta [26] is listed as 5.04; in the experiment on Helicoverpa assulta [27] it was 11; in the experiment with Helicoverpa assulta [28], 7.37; in the experiment on Helicoverpa assulta [31], 17.9; with Helicoverpa assulta [34], 17.2; in the experiment with Helicoverpa assulta [35], 14.3. The LD90 in the experiment with Helicoverpa assulta [29] turned out to be 107 µg/g; in the experiment on Helicoverpa assulta [30], 36.9 µg/g; in the experiment with Helicoverpa assulta [32], 124 µg/g; with Helicoverpa assulta [33], 62.2 µg/g. The LD50 with Helicoverpa assulta [29] (Helicoverpa assulta, YN2, 48 h) stood at 34.8 mg/kg; in the experiment with Helicoverpa assulta [30] (Helicoverpa assulta, FJ3, 48 h), 19 mg/kg; in the experiment with Helicoverpa assulta [32] (Helicoverpa assulta, GZ1, 48 h), 33.3 mg/kg; in the experiment with Helicoverpa assulta [33] (Helicoverpa assulta, FJ1, 48 h), 16.7 mg/kg.
